{"source": "patent US20260053731A1", "about": "“MICRONEEDLE PARTICLES FOR ENHANCED TOPICAL TRANSDERMAL DRUG DELIVERY” (BONSENS AB, priority 2023, published 2026)", "assay": "Adverse effects of daily treatment in tumor-bearing mice (weight, skin histology)", "format": "in vivo, hairless NMRI Nude mice", "method": "For hematoxylin/eosin staining (H&E), skin was isolated, immediately fixed in PFA (4% paraformaldehyde in PBS) overnight at room temperature, and then transferred to 70% ethanol prior to paraffin embedding and sectioning. Then, skin sections (8 μm) were stained with hematoxylin for 3 min after rehydration, rinsed for 10 min in running tap water and then stained for 1 min in eosin solution before being mounted on Fluoromount (DAKO). Whole slide pictures were taken by Olympus Slide View VS200 at Histological Core facility—HistoCore, Karolinska Institutet, Sweden, processed, and analyzed by OlyVIA software.\nThe mice were monitored for signs of discomfort (hunched posture, immobility, >10% weight loss) throughout the duration of the experiment as per ethics application.\nIn vivo experimentation was performed by inducing subcutaneous GTML2 tumors in mice through injecting a Tet-Off transgenic doxycycline-dependent murine cell line 40 into the flanks. […] Mice were monitored daily and were visualized with IVIS under tumor suspicion. […] Tumors were monitored and measured by IVIS imaging and by vernier calliper every week until the end of the experimentation. When measuring using a Vernier calliper, tumor volumes were calculated from the ellipsoid formula: V=4/3 πWLD. […]", "data": [{"molecule": "C[C@H]1c2cccc(O)c2C(=O)C2=C(O)[C@]3(O)C(=O)C(C(N)=O)=C(O)[C@@H](N(C)C)[C@@H]3[C@@H](O)[C@@H]21", "note": "[Doxycycline, doxycycline]", "values": [{"measurement": "weight of mice", "setting": "long term oral doxycycline in drinking water, compared to plain water control group", "result": "slower increase in their weight"}, {"measurement": "weight of mice", "setting": "topical skin treatment, 11 weeks", "result": "did not alter the weight of the mice"}]}]}
